“Also recorded” adds a separate entry of the source.
Experiments:
anti-BCMA CAR T cells [1] = experiment: CD62L expression on anti-BCMA CAR T cells by flow cytometry at end of culture; assay type: cell-based, human
Experimental: CAR T cells were cultured with either MK-2206 or triciribine phosphate-TCN (AKT inhibitors) or ZSTK474 (PI3K inhibitor). CAR T cells specific for B cell maturation antigen (BCMA) were used in these set of experiments. CAR T cell cultures were performed using a system directly scalable to large clinical manufacturing processes. […] 2×10^8 transducing units of lentivirus encoding anti-BCMA CARs were added one day after culture initiation. […] At the end of culture, the anti-BCMA CAR T cells were interrogated for phenotype.
Expression of CD62L on anti-BCMA CAR T cells was assessed by flow cytometry at the end of culture. Anti-BCMA CAR T cells were specifically identified using recombinant human BCMA-IgG Fc conjugated to PE. CD62L expression was determined with a co-stain using an antibody specific to CD62L. […] (FIG. 3).
Anti-BCMA CAR T cells cultures were prepared using a system directly scalable to large clinical manufacturing processes. […] 2×10^8 transducing units of lentivirus encoding anti-BCMA CARs were added one day after culture initiation. […] At the end of culture, the anti-BCMA CAR T cells were interrogated for phenotype.
Expression of CD62L on anti-BCMA CAR T cells was assessed by flow cytometry at the end of culture. Anti-BCMA CAR T cells were specifically identified using recombinant human BCMA-IgG Fc conjugated to PE. CD62L expression was determined with a co-stain using an antibody specific to CD62L. […] (FIG. 7).

T cells [2] = experiment: CD62L expression on T cells cultured with MK-2206; assay type: cell-based, human
Experimental: Peripheral blood mononuclear cells (PBMC) are a heterogeneous cellular population containing T cells. PBMC were harvested from normal donors and labeled with a fluorescent dye (CellTrace® Violet, Molecular Probes), whose intensity is progressively diluted by a factor of two with each cell division. The labeled PBMCs were used as a source of cells for T cell expansion. […] The impact of MK-2206 on cell division was assayed by evaluating CellTrace Violet dilution with flow cytometry after the addition of 0.025 μM, 0.074 μM, 0.222 μM, 0.67 μM, or 2.0 μM, MK-2206 to the T cultures at day 0. […] A pairwise t test was performed on all day seven cultures; (each concentration of MK-2206 was compared to 0 μM MK-2206: the cultures were not statistically different at the p≤0.05 level). The purpose of this experiment was to determine the effect of Akt inhibitors on T cell markers for T cell potency. The impact of MK-2206 (Selleckchem) on T cell potency was assessed by measuring CD62L expression in the T cell cultures manufactured in Example 1. Mouse models have shown that CD62L expression identifies potent T cells; T cells with greater anti-tumor efficacy after adoptive transfer. […] FIG. 2. A pairwise T test was performed on all day seven cultures (each concentration of MK-2206 was compared to 0 μM MK-2206: *p<0.05, **p<0.01).

anti-BCMA CAR T cells [3] = experiment: Cell surface expression of anti-BCMA CAR by flow cytometry; assay type: cell-based, human; details: end of culture, four normal donors
Experimental: (§1) 1×10^8 transducing units of lentivirus encoding anti-BCMA CARs were added one day after culture initiation and at the end of culture, the anti-BCMA CAR T cells were interrogated for genomic integration and cell surface expression of the anti-BCMA CAR.
Expression of the anti-BCMA CAR on the surface of T cells was assessed by flow cytometry at the end of culture. Anti-BCMA CAR T cells were specifically identified using recombinant human BCMA-IgG Fc conjugated to PE.

anti-BCMA CAR T cells [4] = experiment: Integrated copies of anti-BCMA CAR (vector copy number) by quantitative PCR; assay type: cell-based, human; details: end of culture, four normal donors, 1×10^8 transducing units lentivirus
Experimental: as §1
Integrated copies of the anti-BCMA CAR were assessed by quantitative PCR at the end of culture using primers that detect the vector or the genomic control RNAseP.

T cells [5] = experiment: T cell proliferation by CellTrace Violet dilution (flow cytometry); assay type: cell-based, human
Experimental: Peripheral blood mononuclear cells (PBMC) are a heterogeneous cellular population containing T cells. PBMC were harvested from normal donors and labeled with a fluorescent dye (CellTrace® Violet, Molecular Probes), whose intensity is progressively diluted by a factor of two with each cell division. The labeled PBMCs were used as a source of cells for T cell expansion. […] The impact of MK-2206 on cell division was assayed by evaluating CellTrace Violet dilution with flow cytometry after the addition of 0.025 μM, 0.074 μM, 0.222 μM, 0.67 μM, or 2.0 μM, MK-2206 to the T cultures at day 0. […] A pairwise t test was performed on all day seven cultures; (each concentration of MK-2206 was compared to 0 μM MK-2206: the cultures were not statistically different at the p≤0.05 level).

anti-BCMA CAR T cells [6] = experiment: CD8 expression by flow cytometry; assay type: cell-based, human; details: seven normal donors, IL-2 and ZSTK474
Experimental: CD8 expression was determined using a fluorescently-labeled anti-CD8 antibody and flow cytometry. […] FIG. 10.

anti-BCMA CAR T cells [7] = experiment: Tonic (antigen-independent) IFN-γ release by ELISA; assay type: cell-based; details: 14 donors; after ten days of culture; IFN-γ levels below 200 pg/mL represent no tonic activity
Experimental: Tonic activity of CAR T cells in the absence of antigen has been associated with reduced biological activity. […] Anti-BCMA CAR T cells cultures were prepared using a system directly scalable to large clinical manufacturing processes. […] 2×10^8 transducing units of lentivirus encoding anti-BCMA CARs were added one day after culture initiation. […] At the end of manufacture, an equivalent number of anti-BCMA CAR T cells were re-cultured for 24 hours in media alone. The amount of IFN-γ released in 24 hours was quantified by ELISA. In this assay IFN-γ levels below 200 pg/mL represent no tonic activity.

anti-BCMA CAR T cells [8] = experiment: Cell surface marker expression by multiparameter mass cytometry (CyTOF); assay type: cell-based
Experimental: Expression analysis of 29 additional cell surface markers on anti-BCMA CAR T cells cultured with IL-2 and ZSTK474 was performed using multiparameter mass cytometry (CyTOF) and compared with CAR T cells cultured in IL-2 alone.

anti-BCMA CAR T cells [9] = experiment: CD127, CD197, CD38 co-expression by fluorescence-based flow cytometry; assay type: cell-based; details: seven donors, ten days of culture
Excerpt: The mass cytometry data in Example 8 identified a set of cell surface markers that further characterizes the phenotype of CART cells cultured in the presence of ZSTK474. […] CAR T cells from seven donors cultured in the presence or absence of ZSTK474 were stained with fluorescently labeled antibodies to CD127, CD197, and CD38. […] FIG. 9.

[10] = Example 7: ten days of culture with IL-2 and optimized dose of inhibitor, four normal donors
[11] = Example 3: ten days of culture with IL-2 and optimized dose of inhibitor, three normal donors

## Nc1nc(N)c2nc(-c3cccc(O)c3)cnc2n1 [TG100713]
anti-BCMA CAR T cells [1]; [10]
  CD62L expression on anti-BCMA CAR T cells vs IL-2 alone: significantly higher CD62L expression

## NC1(c2ccc(-c3nc4ccn5c(=O)[nH]nc5c4cc3-c3ccccc3)cc2)CCC1 [MK-2206]
T cells [2]; seven days of culture, all concentrations of MK-2206 tested, in presence of IL-2
  CD62L expression on T cells vs no treatment control: significantly increases CD62L expression; also recorded: significant higher levels of CD62L expression
T cells [2]; three days of culture with MK-2206
  CD62L expression on T cells vs no treatment control: not substantially different
anti-BCMA CAR T cells [3]
  anti-BCMA CAR expression on the surface of T cells vs IL-2 alone: significantly higher CAR expression
anti-BCMA CAR T cells [1]; [11]
  CD62L expression on anti-BCMA CAR T cells vs IL-2 alone: significantly higher CD62L expression
anti-BCMA CAR T cells [1]; [10]
  CD62L expression on anti-BCMA CAR T cells vs IL-2 alone: significantly higher CD62L expression
anti-BCMA CAR T cells [4]
  integrated copies of the anti-BCMA CAR vs IL-2 only: significantly more integrated copies
T cells [5]; seven days of culture, 0.025-2.0 μM MK-2206, IL-2, pairwise t test p≤0.05
  T cell division / proliferation vs vehicle or non-treated controls: no statistically significant differences in T cell division; also recorded: not substantially different
T cells [5]; three days of culture, 0.025-2.0 μM MK-2206, IL-2, CD3 and CD28 antibodies
  T cell division / proliferation vs no treatment control: did not substantially decrease T cell division; also recorded: only slightly decreased

## FC(F)c1nc2ccccc2n1-c1nc(N2CCOCC2)nc(N2CCOCC2)n1 [ZSTK474]
anti-BCMA CAR T cells [6]
  CD8 expression vs IL-2 alone: significantly higher CD8 expression; also recorded: increased percentage of CD8 expressing anti-BCMA CAR T cells
anti-BCMA CAR T cells [7]
  IFN-γ released in 24 hours in media alone (tonic activity): consistent with lacking tonic activity; also recorded: did not significantly increase
anti-BCMA CAR T cells [8]; CD62L positive anti-BCMA T cells, ten days of culture
  percentage of cells co-expressing CD127, CD197 and CD38 vs IL-2 alone (Venn diagrams): increase in the percentage of cells co-expressing CD127, CD197 and CD38
anti-BCMA CAR T cells [8]; CyTOF, CD62L positive cells, ten days of culture
  anti-BCMA CAR T cells co-expressing CD127, CD197 and CD38: 24.5%
anti-BCMA CAR T cells [8]; CyTOF, anti-BCMA CAR T cells cultured with IL-2 and ZSTK474
  expression of CD127, CD197 and CD38 vs IL-2 alone: increased expression
anti-BCMA CAR T cells [1]; [11]
  CD62L expression on anti-BCMA CAR T cells vs IL-2 alone: increased CD62L expression; also recorded: significantly higher CD62L expression
anti-BCMA CAR T cells [1]; [10]
  CD62L expression on anti-BCMA CAR T cells vs IL-2 alone: significantly higher CD62L expression
anti-BCMA CAR T cells [9]
  anti-BCMA CAR T cells co-expressing CD127, CD197 and CD38 vs IL-2 alone: significant increase; also recorded: increase in the percentage of cells co-expressing CD127, CD197 and CD38

— patent US11479755B2, “T cell compositions” (2seventy bio, Inc., priority 2015, dated 2022)
